{"source": "patent US9340590B2", "about": "(priority 2011, dated 2016)", "test_in_all_cases": "cell-based", "key": {"hNav1.5": {"molecular_target": "hNav1.5 (Homo sapiens, UniProt Q14524)"}, "hNav1.3": {"molecular_target": "hNav1.3 (Homo sapiens, UniProt Q9NY46)", "sequence (Q9NY46 whole entry, looked up)": "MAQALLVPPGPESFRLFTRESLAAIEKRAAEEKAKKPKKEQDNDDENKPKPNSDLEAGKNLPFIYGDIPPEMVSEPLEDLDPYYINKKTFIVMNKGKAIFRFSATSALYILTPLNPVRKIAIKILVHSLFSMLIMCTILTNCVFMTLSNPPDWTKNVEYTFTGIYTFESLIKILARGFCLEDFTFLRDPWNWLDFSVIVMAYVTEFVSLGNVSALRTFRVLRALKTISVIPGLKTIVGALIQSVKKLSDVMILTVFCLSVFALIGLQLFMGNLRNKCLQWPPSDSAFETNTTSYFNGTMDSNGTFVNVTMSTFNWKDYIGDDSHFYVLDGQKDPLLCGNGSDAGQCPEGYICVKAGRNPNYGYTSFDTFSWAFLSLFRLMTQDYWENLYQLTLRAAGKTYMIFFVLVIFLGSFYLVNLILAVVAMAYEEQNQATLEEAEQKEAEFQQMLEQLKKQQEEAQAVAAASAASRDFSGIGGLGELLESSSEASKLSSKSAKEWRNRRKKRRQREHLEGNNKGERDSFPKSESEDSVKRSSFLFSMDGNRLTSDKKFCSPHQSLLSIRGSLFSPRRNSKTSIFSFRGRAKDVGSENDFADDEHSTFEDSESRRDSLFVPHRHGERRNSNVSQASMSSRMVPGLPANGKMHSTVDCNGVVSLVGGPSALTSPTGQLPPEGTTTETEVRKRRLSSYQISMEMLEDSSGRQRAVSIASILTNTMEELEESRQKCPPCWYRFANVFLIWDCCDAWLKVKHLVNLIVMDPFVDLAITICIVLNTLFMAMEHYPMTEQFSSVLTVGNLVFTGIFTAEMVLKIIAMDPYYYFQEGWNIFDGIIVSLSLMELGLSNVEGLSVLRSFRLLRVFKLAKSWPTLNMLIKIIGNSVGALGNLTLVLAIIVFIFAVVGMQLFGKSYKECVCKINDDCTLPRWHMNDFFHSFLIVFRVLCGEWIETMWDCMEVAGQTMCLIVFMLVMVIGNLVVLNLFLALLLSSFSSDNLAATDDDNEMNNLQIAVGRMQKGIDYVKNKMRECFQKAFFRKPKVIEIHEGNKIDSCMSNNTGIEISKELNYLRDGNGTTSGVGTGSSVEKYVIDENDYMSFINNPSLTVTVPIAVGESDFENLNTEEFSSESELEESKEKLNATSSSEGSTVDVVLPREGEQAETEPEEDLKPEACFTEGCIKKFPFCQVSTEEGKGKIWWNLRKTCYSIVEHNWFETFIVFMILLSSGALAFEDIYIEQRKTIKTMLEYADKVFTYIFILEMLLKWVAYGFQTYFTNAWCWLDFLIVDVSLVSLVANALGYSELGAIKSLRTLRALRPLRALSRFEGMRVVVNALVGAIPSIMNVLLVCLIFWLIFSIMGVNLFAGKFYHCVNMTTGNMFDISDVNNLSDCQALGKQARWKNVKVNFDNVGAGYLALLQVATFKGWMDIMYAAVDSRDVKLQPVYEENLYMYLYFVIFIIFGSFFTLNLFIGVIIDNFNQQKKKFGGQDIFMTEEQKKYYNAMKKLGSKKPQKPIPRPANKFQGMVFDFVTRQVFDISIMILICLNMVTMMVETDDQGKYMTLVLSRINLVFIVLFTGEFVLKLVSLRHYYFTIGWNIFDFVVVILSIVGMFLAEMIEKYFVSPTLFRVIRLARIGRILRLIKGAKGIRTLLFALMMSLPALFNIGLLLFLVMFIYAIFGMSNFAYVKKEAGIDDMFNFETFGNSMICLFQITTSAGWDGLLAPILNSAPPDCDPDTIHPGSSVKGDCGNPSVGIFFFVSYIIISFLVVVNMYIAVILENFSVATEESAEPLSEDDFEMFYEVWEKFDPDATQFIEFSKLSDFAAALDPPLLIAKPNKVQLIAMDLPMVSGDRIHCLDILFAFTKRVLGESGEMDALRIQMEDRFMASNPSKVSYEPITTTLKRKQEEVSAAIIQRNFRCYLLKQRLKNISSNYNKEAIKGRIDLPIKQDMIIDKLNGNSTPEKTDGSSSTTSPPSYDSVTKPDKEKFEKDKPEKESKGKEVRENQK"}, "hNav1.7": {"molecular_target": "hNav1.7 (Homo sapiens, UniProt Q15858)", "sequence (Q15858 whole entry, looked up)": "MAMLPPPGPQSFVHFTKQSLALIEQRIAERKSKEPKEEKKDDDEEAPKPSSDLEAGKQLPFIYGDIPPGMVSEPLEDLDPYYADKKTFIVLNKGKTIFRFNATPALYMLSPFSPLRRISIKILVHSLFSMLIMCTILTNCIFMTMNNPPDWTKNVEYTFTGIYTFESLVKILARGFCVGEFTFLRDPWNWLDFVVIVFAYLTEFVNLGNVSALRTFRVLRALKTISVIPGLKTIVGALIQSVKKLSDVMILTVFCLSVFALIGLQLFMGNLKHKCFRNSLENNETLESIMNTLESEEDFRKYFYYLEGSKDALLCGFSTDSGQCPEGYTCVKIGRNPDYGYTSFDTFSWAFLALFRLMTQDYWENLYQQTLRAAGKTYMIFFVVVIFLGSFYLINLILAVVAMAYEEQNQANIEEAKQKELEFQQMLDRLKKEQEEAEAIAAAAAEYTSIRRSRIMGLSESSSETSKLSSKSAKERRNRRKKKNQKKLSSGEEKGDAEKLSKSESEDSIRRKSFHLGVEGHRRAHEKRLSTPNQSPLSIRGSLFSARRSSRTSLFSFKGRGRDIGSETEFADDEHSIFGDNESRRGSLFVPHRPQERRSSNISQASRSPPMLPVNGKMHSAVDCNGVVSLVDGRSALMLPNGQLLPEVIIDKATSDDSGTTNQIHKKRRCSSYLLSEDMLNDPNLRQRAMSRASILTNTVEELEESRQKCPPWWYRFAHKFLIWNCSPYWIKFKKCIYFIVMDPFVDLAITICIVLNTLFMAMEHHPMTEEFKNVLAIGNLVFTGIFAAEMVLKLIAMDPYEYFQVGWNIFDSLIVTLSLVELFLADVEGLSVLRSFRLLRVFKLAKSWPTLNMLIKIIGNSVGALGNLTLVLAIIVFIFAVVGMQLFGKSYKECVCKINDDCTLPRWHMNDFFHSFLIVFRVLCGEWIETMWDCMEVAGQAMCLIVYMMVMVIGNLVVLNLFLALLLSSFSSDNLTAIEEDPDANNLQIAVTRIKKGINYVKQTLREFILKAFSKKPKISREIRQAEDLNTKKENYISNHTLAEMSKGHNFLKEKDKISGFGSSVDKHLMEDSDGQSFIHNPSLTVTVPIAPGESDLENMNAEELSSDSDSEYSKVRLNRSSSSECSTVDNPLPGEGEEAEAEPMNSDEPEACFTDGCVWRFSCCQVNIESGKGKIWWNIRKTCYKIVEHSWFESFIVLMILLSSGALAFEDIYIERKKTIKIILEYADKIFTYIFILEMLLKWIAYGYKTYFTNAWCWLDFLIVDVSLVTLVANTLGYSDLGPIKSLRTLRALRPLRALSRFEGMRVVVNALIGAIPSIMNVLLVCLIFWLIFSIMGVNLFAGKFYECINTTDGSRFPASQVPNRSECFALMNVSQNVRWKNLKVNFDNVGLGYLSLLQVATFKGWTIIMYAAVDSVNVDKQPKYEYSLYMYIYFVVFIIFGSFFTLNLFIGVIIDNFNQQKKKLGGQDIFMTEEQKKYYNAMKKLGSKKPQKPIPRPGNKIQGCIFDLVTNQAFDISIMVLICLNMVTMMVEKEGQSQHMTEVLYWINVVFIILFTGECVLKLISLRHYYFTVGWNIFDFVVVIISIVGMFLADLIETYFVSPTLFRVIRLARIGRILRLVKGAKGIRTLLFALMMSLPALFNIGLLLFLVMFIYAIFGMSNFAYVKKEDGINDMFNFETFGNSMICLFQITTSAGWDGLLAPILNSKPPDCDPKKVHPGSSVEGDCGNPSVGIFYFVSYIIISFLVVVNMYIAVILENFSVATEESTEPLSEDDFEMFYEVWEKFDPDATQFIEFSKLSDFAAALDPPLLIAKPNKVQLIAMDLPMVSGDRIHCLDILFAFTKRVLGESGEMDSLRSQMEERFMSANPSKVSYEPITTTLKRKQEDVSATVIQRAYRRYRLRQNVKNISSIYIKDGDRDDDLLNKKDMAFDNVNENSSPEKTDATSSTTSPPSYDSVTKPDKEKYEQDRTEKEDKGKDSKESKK", "type": "cell-based"}}, "note": "Where two headings read alike, the source gives them in different places. Positions of bridges follow the written chain, without caps; N, C: chain ends. Residues, ends and D or L forms follow the SMILES beside them.", "data": [{"smiles": "CC[C@H](C)[C@@H]1NC(=O)[C@@H]2CSSC[C@@H]3NC(=O)[C@H](CCCCN)NC(=O)[C@H](CC(C)C)NC(=O)[C@H](CC(N)=O)NC(=O)[C@@H]4CCCN4C(=O)[C@H](CCCNC(=N)N)NC(=O)[C@H](CSSC[C@H](NC(=O)[C@@H](N)CC(=O)O)C(=O)N[C@@H](CC(C)C)C(=O)NCC(=O)N[C@@H](Cc4ccccc4)C(=O)N[C@@H](CCSC)C(=O)N[C@@H](CCCNC(=N)N)C(=O)N[C@@H](CCCCN)C(=O)N2)NC(=O)[C@H](CSSC[C@@H](C(=O)N[C@@H](CCCCN)C(=O)N[C@@H](Cc2ccc(O)cc2)C(=O)N[C@H](C(=O)N[C@@H](Cc2ccccc2)C(N)=O)C(C)C)NC(=O)[C@H](Cc2c[nH]c4ccccc24)NC(=O)[C@H](CCCCN)NC(=O)[C@H](Cc2cnc[nH]2)NC(=O)[C@H]([C@@H](C)O)NC(=O)[C@H](CCCNC(=N)N)NC(=O)[C@H](CO)NC3=O)NC(=O)[C@H](CCCCN)NC(=O)[C@H](CC(=O)O)NC(=O)[C@H](CC(N)=O)NC(=O)[C@H](CC(=O)O)NC(=O)[C@@H]2CCCN2C1=O", "note": "[compound 52] (H-DCLGFMRKCIPDNDKCCRPNLKCSRTHKWCKYVF-NH2; disulfide 2-17, 9-23, 16-30)", "values": [{"measurement": "IC50", "setting": "hNav1.5; IonWorks Quattro, Use, read-out: IWQ Use Nav1.5", "result": 15, "unit": "µM"}, {"measurement": "IC50", "setting": "hNav1.3; IonWorks Quattro, Use, read-out: IWQ Use Nav1.3", "result": 0.08, "unit": "µM"}, {"measurement": "IC50", "setting": "hNav1.7", "result": 0.19, "unit": "µM"}]}, {"smiles": "CC[C@H](C)[C@@H]1NC(=O)[C@@H]2CSSC[C@@H]3NC(=O)[C@H](C(C)C)NC(=O)[C@H](CC(C)C)NC(=O)[C@H](CC(N)=O)NC(=O)[C@@H]4CCCN4C(=O)[C@H](CCCNC(=N)N)NC(=O)[C@H](CSSC[C@H](NC(=O)[C@@H](N)CC(=O)O)C(=O)N[C@@H](CC(C)C)C(=O)NCC(=O)N[C@@H](Cc4ccccc4)C(=O)N[C@@H](CCSC)C(=O)N[C@@H](CCCNC(=N)N)C(=O)N[C@@H](CCCCN)C(=O)N2)NC(=O)[C@H](CSSC[C@@H](C(=O)N[C@@H](CCCCN)C(=O)N[C@@H](Cc2ccc(O)cc2)C(=O)N[C@H](C(=O)N[C@@H](Cc2ccccc2)C(N)=O)C(C)C)NC(=O)[C@H](Cc2c[nH]c4ccccc24)NC(=O)[C@H](CCCCN)NC(=O)[C@H](Cc2cnc[nH]2)NC(=O)[C@H](CCCCN)NC(=O)[C@H](CCCNC(=N)N)NC(=O)[C@H](CO)NC3=O)NC(=O)[C@H](CCCCN)NC(=O)[C@H](CC(=O)O)NC(=O)[C@H](CC(N)=O)NC(=O)[C@H](CC(=O)O)NC(=O)[C@@H]2CCCN2C1=O", "note": "[compound 54] (H-DCLGFMRKCIPDNDKCCRPNLVCSRKHKWCKYVF-NH2; disulfide 2-17, 9-23, 16-30)", "values": [{"measurement": "IC50", "setting": "hNav1.5; Table 22, IonWorks Quattro, use, […], read-out: IWQ Use Nav1.5", "result": 7.96, "unit": "µM"}, {"measurement": "IC50", "setting": "hNav1.3; Table 22, IonWorks Quattro, use, […], read-out: IWQ Use Nav1.3", "result": 0.02, "unit": "µM"}, {"measurement": "IC50", "setting": "hNav1.7; Table 22, IonWorks Quattro, use, […], read-out: IWQ Use Nav1.7", "result": 0.05, "unit": "µM"}]}, {"smiles": "CC[C@H](C)[C@@H]1NC(=O)[C@@H]2CSSC[C@@H]3NC(=O)[C@H](C(C)C)NC(=O)[C@H](CC(C)C)NC(=O)[C@H](CC(N)=O)NC(=O)[C@@H]4CCCN4C(=O)[C@H](CCCNC(=N)N)NC(=O)[C@H](CSSC[C@H](NC(=O)[C@@H](N)CC(=O)O)C(=O)N[C@@H](CC(C)C)C(=O)NCC(=O)N[C@@H](Cc4ccccc4)C(=O)N[C@@H](CCSC)C(=O)N[C@@H](CCCNC(=N)N)C(=O)N[C@@H](CCCCN)C(=O)N2)NC(=O)[C@H](CSSC[C@@H](C(=O)N[C@@H](CCCCN)C(=O)N[C@@H](Cc2ccc(O)cc2)C(=O)N[C@H](C(=O)N[C@@H](Cc2ccccc2)C(N)=O)C(C)C)NC(=O)[C@H](Cc2c[nH]c4ccccc24)NC(=O)[C@H](CCCCN)NC(=O)[C@H](CCCCN)NC(=O)[C@H]([C@@H](C)O)NC(=O)[C@H](CCCNC(=N)N)NC(=O)[C@H](CO)NC3=O)NC(=O)[C@H](CCCCN)NC(=O)[C@H](CC(=O)O)NC(=O)[C@H](CC(N)=O)NC(=O)[C@H](CC(=O)O)NC(=O)[C@@H]2CCCN2C1=O", "note": "[compound 55] (H-DCLGFMRKCIPDNDKCCRPNLVCSRTKKWCKYVF-NH2; disulfide 2-17, 9-23, 16-30)", "values": [{"measurement": "IC50", "setting": "hNav1.5; Table 23, IonWorks Quattro, use, […], read-out: IWQ Use Nav1.5", "result": 11.5, "unit": "µM"}, {"measurement": "IC50", "setting": "hNav1.3; Table 23, IonWorks Quattro, use, […], read-out: IWQ Use Nav1.3", "result": 2.48, "unit": "µM"}, {"measurement": "IC50", "setting": "hNav1.7; Table 23, IonWorks Quattro, use, […], read-out: IWQ Use Nav1.7", "result": 1.51, "unit": "µM"}]}, {"smiles": "CC[C@H](C)[C@@H]1NC(=O)[C@@H]2CSSC[C@@H]3NC(=O)[C@H](C(C)C)NC(=O)[C@H](CC(C)C)NC(=O)[C@H](CC(N)=O)NC(=O)[C@@H]4CCCN4C(=O)[C@H](CCCNC(=N)N)NC(=O)[C@H](CSSC[C@H](NC(=O)[C@@H](N)CC(=O)O)C(=O)N[C@@H](CC(C)C)C(=O)NCC(=O)N[C@@H](Cc4ccccc4)C(=O)N[C@@H](CCSC)C(=O)N[C@@H](CCCNC(=N)N)C(=O)N[C@@H](CCCCN)C(=O)N2)NC(=O)[C@H](CSSC[C@@H](C(=O)N[C@@H](CCCCN)C(=O)N[C@@H](Cc2ccc(O)cc2)C(=O)N[C@H](C(=O)N[C@@H](Cc2ccccc2)C(N)=O)C(C)C)NC(=O)[C@H](CCCCN)NC(=O)[C@H](CCCCN)NC(=O)[C@H](Cc2cnc[nH]2)NC(=O)[C@H]([C@@H](C)O)NC(=O)[C@H](CCCNC(=N)N)NC(=O)[C@H](CO)NC3=O)NC(=O)[C@H](CCCCN)NC(=O)[C@H](CC(=O)O)NC(=O)[C@H](CC(N)=O)NC(=O)[C@H](CC(=O)O)NC(=O)[C@@H]2CCCN2C1=O", "note": "[compound 56] (H-DCLGFMRKCIPDNDKCCRPNLVCSRTHKKCKYVF-NH2; disulfide 2-17, 9-23, 16-30)", "values": [{"measurement": "IC50", "setting": "hNav1.5; IWQ Use Nav1.5 (μM)", "result": 14.7, "unit": "µM"}, {"measurement": "IC50", "setting": "hNav1.3", "result": 24.5, "unit": "µM"}, {"measurement": "IC50", "setting": "hNav1.7", "result": 20.1, "unit": "µM"}]}, {"smiles": "CC[C@H](C)[C@@H]1NC(=O)[C@@H]2CSSC[C@@H]3NC(=O)[C@H](C(C)C)NC(=O)[C@H](CC(C)C)NC(=O)[C@H](CC(N)=O)NC(=O)[C@@H]4CCCN4C(=O)[C@H](CCCNC(=N)N)NC(=O)[C@H](CSSC[C@H](NC(=O)[C@@H](N)CC(=O)O)C(=O)N[C@@H](CC(C)C)C(=O)NCC(=O)N[C@@H](Cc4ccccc4)C(=O)N[C@@H](CCSC)C(=O)N[C@@H](CCCNC(=N)N)C(=O)N[C@@H](CCCCN)C(=O)N2)NC(=O)[C@H](CSSC[C@@H](C(=O)N[C@@H](CCCCN)C(=O)N[C@@H](CCCCN)C(=O)N[C@H](C(=O)N[C@@H](Cc2ccccc2)C(N)=O)C(C)C)NC(=O)[C@H](Cc2c[nH]c4ccccc24)NC(=O)[C@H](CCCCN)NC(=O)[C@H](Cc2cnc[nH]2)NC(=O)[C@H]([C@@H](C)O)NC(=O)[C@H](CCCNC(=N)N)NC(=O)[C@H](CO)NC3=O)NC(=O)[C@H](CCCCN)NC(=O)[C@H](CC(=O)O)NC(=O)[C@H](CC(N)=O)NC(=O)[C@H](CC(=O)O)NC(=O)[C@@H]2CCCN2C1=O", "note": "[compound 57] (H-DCLGFMRKCIPDNDKCCRPNLVCSRTHKWCKKVF-NH2; disulfide 2-17, 9-23, 16-30)", "values": [{"measurement": "IC50", "setting": "hNav1.5; Table 25, IonWorks Quattro, use, […], read-out: IWQ Use Nav1.5", "result": 10.9, "unit": "µM"}, {"measurement": "IC50", "setting": "hNav1.3; Table 25, IonWorks Quattro, use, […], read-out: IWQ Use Nav1.3", "result": 4.19, "unit": "µM"}, {"measurement": "IC50", "setting": "hNav1.7; Table 25, IonWorks Quattro, use, […], read-out: IWQ Use Nav1.7", "result": 4.96, "unit": "µM"}]}, {"smiles": "CC[C@H](C)[C@@H]1NC(=O)[C@@H]2CSSC[C@@H]3NC(=O)[C@H](C(C)C)NC(=O)[C@H](CC(C)C)NC(=O)[C@H](CC(N)=O)NC(=O)[C@@H]4CCCN4C(=O)[C@H](CCCNC(=N)N)NC(=O)[C@H](CSSC[C@H](NC(=O)[C@@H](N)CC(=O)O)C(=O)N[C@@H](CC(C)C)C(=O)NCC(=O)N[C@@H](Cc4ccccc4)C(=O)N[C@@H](CCSC)C(=O)N[C@@H](CCCNC(=N)N)C(=O)N[C@@H](CCCCN)C(=O)N2)NC(=O)[C@H](CSSC[C@@H](C(=O)N[C@@H](CCCCN)C(=O)N[C@@H](Cc2ccc(O)cc2)C(=O)N[C@@H](CCCCN)C(=O)N[C@@H](Cc2ccccc2)C(N)=O)NC(=O)[C@H](Cc2c[nH]c4ccccc24)NC(=O)[C@H](CCCCN)NC(=O)[C@H](Cc2cnc[nH]2)NC(=O)[C@H]([C@@H](C)O)NC(=O)[C@H](CCCNC(=N)N)NC(=O)[C@H](CO)NC3=O)NC(=O)[C@H](CCCCN)NC(=O)[C@H](CC(=O)O)NC(=O)[C@H](CC(N)=O)NC(=O)[C@H](CC(=O)O)NC(=O)[C@@H]2CCCN2C1=O", "note": "[compound 58] (H-DCLGFMRKCIPDNDKCCRPNLVCSRTHKWCKYKF-NH2; disulfide 2-17, 9-23, 16-30)", "values": [{"measurement": "IC50", "setting": "hNav1.5; Table 26, IonWorks Quattro, use, […], read-out: IWQ Use Nav1.5", "result": 9.56, "unit": "µM"}, {"measurement": "IC50", "setting": "hNav1.3; Table 26, IonWorks Quattro, use, […], read-out: IWQ Use Nav1.3", "result": 0.07, "unit": "µM"}, {"measurement": "IC50", "setting": "hNav1.7; Table 26, IonWorks Quattro, use, […], read-out: IWQ Use Nav1.7", "result": 0.07, "unit": "µM"}]}, {"smiles": "CC[C@H](C)[C@@H]1NC(=O)[C@@H]2CSSC[C@@H]3NC(=O)[C@H](C(C)C)NC(=O)[C@H](CC(C)C)NC(=O)[C@H](CC(N)=O)NC(=O)[C@@H]4CCCN4C(=O)[C@H](CCCNC(=N)N)NC(=O)[C@H](CSSC[C@H](NC(=O)[C@@H](N)CC(=O)O)C(=O)N[C@@H](CC(C)C)C(=O)NCC(=O)N[C@@H](Cc4ccccc4)C(=O)N[C@@H](CCSC)C(=O)N[C@@H](CCCNC(=N)N)C(=O)N[C@@H](CCCCN)C(=O)N2)NC(=O)[C@H](CSSC[C@@H](C(=O)N[C@@H](CCCCN)C(=O)N[C@@H](Cc2ccc(O)cc2)C(=O)N[C@H](C(=O)N[C@@H](CCCCN)C(N)=O)C(C)C)NC(=O)[C@H](Cc2c[nH]c4ccccc24)NC(=O)[C@H](CCCCN)NC(=O)[C@H](Cc2cnc[nH]2)NC(=O)[C@H]([C@@H](C)O)NC(=O)[C@H](CCCNC(=N)N)NC(=O)[C@H](CO)NC3=O)NC(=O)[C@H](CCCCN)NC(=O)[C@H](CC(=O)O)NC(=O)[C@H](CC(N)=O)NC(=O)[C@H](CC(=O)O)NC(=O)[C@@H]2CCCN2C1=O", "note": "[compound 59] (H-DCLGFMRKCIPDNDKCCRPNLVCSRTHKWCKYVK-NH2; disulfide 2-17, 9-23, 16-30)", "values": [{"measurement": "IC50", "setting": "hNav1.5; IonWorks Quattro, use-dependent, […], read-out: IWQ Use Nav1.5", "result": 18.1, "unit": "µM"}, {"measurement": "IC50", "setting": "hNav1.3; IonWorks Quattro, use-dependent, […], read-out: IWQ Use Nav1.3", "result": 7.74, "unit": "µM"}, {"measurement": "IC50", "setting": "hNav1.7; IonWorks Quattro, use-dependent, […], read-out: IWQ Use Nav1.7", "result": 5.68, "unit": "µM"}]}]}
